# Data: publication PMC9966181, “Polyphenols with Anti-Inflammatory Properties: Synthesis and Biological Activity of Novel Curcumin Derivatives” (International Journal of Molecular Sciences, 2023)
# What was measured:
# Assay type in all cases: cell-based, C57BL/6 mice
# IL-6 production = test: Inhibition of IL-6 production in LPS-stimulated peritoneal macrophages (ELISA); conditions: for Effect on production of IL-6 at single concentration: 30 μM, 1 h before 10 ng/mL LPS; for Effect on production of IL-6 at single concentration / Dose-dependent inhibition of IL-6 production: 6 h; for IC50: peritoneal macrophages, compounds 1 h before 10 ng/mL LPS, supernatant after 6 h, average of three independent experiments in duplicate ± S.D.; for Relative activity on IL-6 production (SAR ranking): ranking in discussion; for Dose-dependent inhibition of IL-6 production: 1, 3, 10, 30 μM, 10 ng/mL LPS
# Description: (§1) Peritoneal macrophages were obtained four days after i.p. instillation of 2 mL of thioglycollate 3%, by peritoneal washing with chilled RPMI. Cells were seeded in RPMI with 10% FCS at 2 × 10^5/well in 96-well plates and cultured for 2 h at 37 °C in an atmosphere of 5% CO2. Cells were treated with compounds 1–15 (30 μM) 1 h before the stimulus with 10 ng/mL of LPS. For dose response experiments, cells were pre-treated with different concentrations (1, 3, 10, 30 μM) of compounds 1, 2, 4, 5, 6, 8, 10, 13, and 15 before the stimulation with 10 ng/mL of LPS. All the treatments and controls were performed in the presence of 0.5% of DMSO, as compounds are solubilized in this solvent. Supernatants were collected 6h after the stimulus with LPS.
# (§2) Peritoneal macrophages were cultured as previously described. The concentrations of IL-6 were determined by ELISA (DuoSet kit, R&D System) according to the manufacturer’s protocol. The concentration of prostaglandin E2 (PGE2) was determined using the “Prostaglandin E2 ELISA Kit - Monoclonal” from Cayman CHEMICAL, according to the manufacturer’s protocol.
# (§3) Results were analyzed using the statistical software package GraphPad Prism 5. Data are presented as means ± S.E.M. Statistical analysis was performed by Student’s t-test. A significant difference between groups was considered when p < 0.05. The half maximal inhibitory concentration (IC50) was calculated by adjusting a sigmoidal dose–response curve following GraphPad Prism5 procedure.
# PGE2 production = test: Inhibition of PGE2 production in LPS-stimulated peritoneal macrophages (ELISA); conditions: for IC50: peritoneal macrophages, compounds 1 h before 10 ng/mL LPS, supernatant after 6 h, average of three independent experiments in duplicate ± S.D.; for Relative activity on PGE2 production (SAR ranking): ranking among the monofunctionalized, discussion
# Description: as §1, §2, §3
# Peritoneal macrophages = test: Cytotoxicity assay (MTT) on peritoneal macrophages; conditions: 30 μM, after supernatant collection
# Description: as §1
# After the removal of supernatants, 100 µL of MTT (0.5 mg/mL) dissolved in RPMI were added to each well and cells were incubated overnight at 37 °C. The supernatants were removed and formazan crystals were dissolved in 100 µL of 0.04 M HCl in isopropanol. The color was analyzed at 570 nm using an ELISA plate reader. The percent of viable cells was calculated using the formula: % viability: [(OD sample) × 100%]/(OD control). The non-stimulated cells, cultured in medium plus 10% FCS and 0.5% DMSO, represented 100% viability.
# [1] = Mus musculus, Peritoneal macrophage
Molecule,Effect on production of IL-6 at single concentration (IL-6 production),Relative activity on IL-6 production (SAR ranking) (IL-6 production),Relative activity on PGE2 production (SAR ranking) (PGE2 production),IC50 (IL-6 production; [1]),IC50 (PGE2 production; [1]),other results
"COc1cc(/C=C/C(O)=C/C(=O)/C=C/c2ccc(OC(=O)CCC(=O)O[C@@H]3C[C@H](C)CC[C@H]3C(C)C)c(OC)c2)ccc1OC(=O)CCC(=O)O[C@H]1C[C@@H](C)CC[C@@H]1C(C)C [Compound 12, O,O′-(((1E,3Z,6E)-3-Hydroxy-5-oxohepta-1,3,6-triene-1,7-diyl)bis(2-methoxy-4,1-phenylene)) bis((1R,2S,5R)-2-isopropyl-5-methylcyclohexyl) Disuccinate]",did not show this activity,,,,,
"4-((1E,4Z,6E)-5-Hydroxy-7-(4-hydroxy-3-methoxyphenyl)-3-oxohepta-1,4,6-trien-1-yl)-2-methoxyphenyl (1,2,3,4-tetrahydronaphthalen-1-yl) Succinate [Compound 15]",,less active,showed activity,,,IC50 (IL-6 production): 10.4 ± 0.75 µM; Effect on PGE2 production at 3 μM (PGE2 production; 3 μM): significantly reduced PGE2 production; IC50 (PGE2 production): 3.07 ± 0.72 µM
"COc1cc(/C=C/C(O)=C/C(=O)/C=C/c2ccc(OC(=O)CCC(=O)O[C@@H]3C[C@H](C)CC[C@H]3C(C)C)c(OC)c2)ccc1O [Compound 13, 4-((1E,4Z,6E)-5-Hydroxy-7-(4-hydroxy-3-methoxyphenyl)-3-oxohepta-1,4,6-trien-1-yl)-2-methoxyphenyl((1R,2S,5R)-2-isopropyl-5-methylcyclohexyl) Succinate]",,less active,lowest activity,10.6 ± 0.33 µM,5.42 ± 2.04 µM,
"COc1cc(/C=C/C(=O)/C=C(O)/C=C/c2ccc(OC(=O)CCC(=O)OC3c4ccccc4-c4ccccc43)c(OC)c2)ccc1OC(=O)CCC(=O)OC1c2ccccc2-c2ccccc21 [Compound 9, Di(9H-fluoren-9-yl) O,O′-(((1E,3Z,6E)-3-hydroxy-5-oxohepta-1,3,6-triene-1,7-diyl)bis(2-methoxy-4,1-phenylene)) Disuccinate]",did not show this activity,,,,,
"COc1cc(/C=C/C(O)=C/C(=O)/C=C/c2ccc(OC(=O)CCC(=O)OC3C4CC5CC(C4)CC3C5)c(OC)c2)ccc1O (centres unmarked) [Compound 4, (1r,3r,5r,7r)-Adamantan-2-yl (4-((1E,4Z,6E)-5-hydroxy-7-(4-hydroxy-3-methoxyphenyl)-3-oxohepta-1,4,6-trien-1-yl)-2-methoxyphenyl) Succinate]",inhibited the production of IL-6,less active,lowest activity,10.5 ± 0.6 µM,4.5 ± 3.18 µM,
"COc1cc(/C=C/C(O)=C/C(=O)/C=C/c2ccc(OC(=O)CCC(=O)OC(c3ccccc3)C3CCCCC3)c(OC)c2)ccc1O (centres unmarked) [Compound 8, Cyclohexyl(phenyl)methyl (4-((1E,4Z,6E)-5-hydroxy-7-(4-hydroxy-3-methoxyphenyl)-3-oxohepta-1,4,6-trien-1-yl)-2-methoxyphenyl) Succinate]",not statistically significant,,lowest activity,1.94 ± 0.66 µM,5.9 ± 2.38 µM,
"COc1cc(/C=C/C(O)=C/C(=O)/C=C/c2ccc(OCc3ccccc3)c(OC)c2)ccc1O [Compound 2, reference compound]",,,,3.59 ± 0.27 µM,0.51 ± 0.08 µM,"Effect on IL-6 production at lowest concentration (IL-6 production; 1 μM): statistically significant inhibitory effect; Dose-dependent inhibition of IL-6 production (IL-6 production): inhibited the production of IL-6 in a dose-dependent manner; Effect on PGE2 production at 1 μM (PGE2 production; 1 μM): showed an effect; Dose-dependent inhibition of PGE2 production (PGE2 production; 1, 3, 10, 30 μM, 10 ng/mL LPS, 6 h): inhibitory effect on PGE2 production at all concentrations tested"
"Curcumin [Compound 1, reference compound]",,,,,,Cytotoxicity / cell viability (MTT) (Peritoneal macrophages): affected cell viability; Dose-dependent inhibition of IL-6 production (IL-6 production): inhibited the production of IL-6 in a dose-dependent manner; IC50 (IL-6 production): 6.85 ± 2.5 µM; IC50 (PGE2 production): 1.34 ± 0.067 µM
"COc1cc(/C=C/C(O)=C/C(=O)/C=C/c2ccc(OC(=O)CCC(=O)OC3c4ccccc4-c4ccccc43)c(OC)c2)ccc1O [Compound 10, 9H-Fluoren-9-yl (4-((1E,4Z,6E)-5-hydroxy-7-(4-hydroxy-3-methoxyphenyl)-3-oxohepta-1,4,6-trien-1-yl)-2-methoxyphenyl) Succinate]",inhibited the production of IL-6,,lowest activity,3.6 ± 0.21 µM,5.93 ± 2.29 µM,
"COc1cc(/C=C/C(=O)/C=C(O)/C=C/c2ccc(OC(=O)CCC(=O)OC(c3ccccc3)C3CCCCC3)c(OC)c2)ccc1OC(=O)CCC(=O)OC(c1ccccc1)C1CCCCC1 (centres unmarked) [Compound 7, Bis(cyclohexyl(phenyl)methyl) O,O′-(((1E,3Z,6E)-3-hydroxy-5-oxohepta-1,3,6-triene-1,7-diyl)bis(2-methoxy-4,1-phenylene)) Disuccinate]",did not show this activity,,,,,
"COc1cc(/C=C/C(O)=C/C(=O)/C=C/c2ccc(OC(=O)CCC(=O)OC(c3ccccc3)c3ccccc3)c(OC)c2)ccc1O [Compound 6, Benzhydryl (4-((1E,4Z,6E)-5-hydroxy-7-(4-hydroxy-3-methoxyphenyl)-3-oxohepta-1,4,6-trien-1-yl)-2-methoxyphenyl) Succinate]",inhibited the production of IL-6,,showed activity,4.21 ± 0.73 µM,4.43 ± 0.85 µM,
"COc1cc(/C=C/C(=O)/C=C(O)/C=C/c2ccc(OC(=O)CCC(=O)OC3C4CC5CC(C4)CC3C5)c(OC)c2)ccc1OC(=O)CCC(=O)OC1C2CC3CC(C2)CC1C3 (centres unmarked) [Compound 3, Di((1r,3r,5r,7r)-adamantan-2-yl) O,O′-(((1E,3Z,6E)-3-hydroxy-5-oxohepta-1,3,6-triene-1,7-diyl)bis(2-methoxy-4,1-phenylene)) Disuccinate]",did not show this activity,,,,,
"COc1cc(/C=C/C(O)=C/C(=O)/C=C/c2ccc(OC(=O)CCC(=O)OCc3ccc4c(c3)C(=O)c3ccccc3C4=O)c(OC)c2)ccc1O [Compound 5, (9,10-Dioxo-9,10-dihydroanthracen-2-yl)methyl (4-((1E,4Z,6E)-5-hydroxy-7-(4-hydroxy-3-methoxyphenyl)-3-oxohepta-1,4,6-trien-1-yl)-2-methoxyphenyl) Succinate]",,less active,showed activity,7.11 ± 0.75 µM,2.6 ± 1.75 µM,
